{"source": "patent US5374764A", "about": "“5-aminosulfonanilide compounds” (Taisho Pharmaceutical Co., Ltd., priority 1991, dated 1994)", "data": [{"test_system": "adjuvant arthritis", "experiment": "Test of action on adjuvant arthritis (therapy)", "format": "in vivo, Lewis strain rats", "settings": "Rattus norvegicus, 96 h; oral, 1 mg/kg once a day for 4 days, in 5% gum arabic; Lewis rats with fully developed adjuvant arthritis; foot volume on day after final administration; read-out: Edema inhibition ratio (%)", "units": {"inhibition in vivo at 1 mg/kg": "%"}, "values": [{"smiles": "CCCCC(=O)Nc1cc(NS(C)(=O)=O)c(OC2CCCCC2)cc1[N+](=O)[O-]", "note": "[Test drug 1, N-[2-cyclohexyloxy-4-nitro-5-(n-valerylamino)phenyl]methanesulfonamide]", "inhibition in vivo at 1 mg/kg": 46.5}, {"smiles": "CS(=O)(=O)Nc1cc(NC=O)c([N+](=O)[O-])cc1OC1CCCCC1", "note": "[Test drug 2]", "inhibition in vivo at 1 mg/kg": 43.1}, {"smiles": "CC(=O)Nc1cc(NS(C)(=O)=O)c(OC2CCCCC2)cc1[N+](=O)[O-]", "note": "[Test drug 3]", "inhibition in vivo at 1 mg/kg": 45.7}, {"smiles": "CCC(=O)Nc1cc(NS(C)(=O)=O)c(OC2CCCCC2)cc1[N+](=O)[O-]", "note": "[Test drug 4]", "inhibition in vivo at 1 mg/kg": 48.5}, {"smiles": "CCCC(=O)Nc1cc(NS(C)(=O)=O)c(OC2CCCCC2)cc1[N+](=O)[O-]", "note": "[Test drug 5, N-[5-(n-butyrylamino)-2-cyclohexyloxy-4-nitrophenyl)methanesulfonamide]", "inhibition in vivo at 1 mg/kg": 44.2}, {"smiles": "CCOC(=O)C(=O)Nc1cc(NS(C)(=O)=O)c(OC2CCCCC2)cc1[N+](=O)[O-]", "note": "[Test drug 6]", "inhibition in vivo at 1 mg/kg": 50.9}, {"smiles": "CCCOC(=O)C(=O)Nc1cc(NS(C)(=O)=O)c(OC2CCCCC2)cc1[N+](=O)[O-]", "note": "[Test drug 7]", "inhibition in vivo at 1 mg/kg": 37.2}, {"smiles": "COC(=O)CC(=O)Nc1cc(NS(C)(=O)=O)c(OC2CCCCC2)cc1[N+](=O)[O-]", "note": "[Test drug 8]", "inhibition in vivo at 1 mg/kg": 38}, {"smiles": "CCOC(=O)CCC(=O)Nc1cc(NS(C)(=O)=O)c(OC2CCCCC2)cc1[N+](=O)[O-]", "note": "[Test drug 9]", "inhibition in vivo at 1 mg/kg": 52.8}, {"smiles": "CS(=O)(=O)Nc1cc(N)c([N+](=O)[O-])cc1OC1CCCCC1", "note": "[Test drug 10, N-(5-amino-2-cyclohexyloxy-4-nitrophenyl)methanesulfonamide]", "inhibition in vivo at 1 mg/kg": 46.7}, {"smiles": "CS(=O)(=O)Nc1ccc([N+](=O)[O-])cc1OC1CCCCC1", "note": "[compound 11]", "inhibition in vivo at 1 mg/kg": 19.7}]}]}
